Laboratory results taken from patent US5071835A, “Ribonucleotide reductase inhibitors” (Bio-Mega Inc., priority 1989, dated 1991).
Non-standard residues stand in square brackets, D forms with d. Residues, ends and D or L forms follow the SMILES beside them. No end group written: not given here. hPhe = N[C@@H](CCc1ccccc1)C(=O)O; NMeD = CN[C@@H](CC(=O)O)C(=O)O; NMeL = CN[C@@H](CC(C)C)C(=O)O; NMeV = CN[C@H](C(=O)O)C(C)C

Target: T1, human ribonucleotide reductase (hRR) (Homo sapiens, UniProt P23921)
T1 construct: Preparation of cell extract containing human ribonucleotide reductase (hRR); endogenous in cells; host or cells: HeLa cells (ATCC CCL 2.2); extract cleared with streptomycin sulphate, 50% ammonium sulphate cut, diafiltered
T1 sequence (P23921 1-792): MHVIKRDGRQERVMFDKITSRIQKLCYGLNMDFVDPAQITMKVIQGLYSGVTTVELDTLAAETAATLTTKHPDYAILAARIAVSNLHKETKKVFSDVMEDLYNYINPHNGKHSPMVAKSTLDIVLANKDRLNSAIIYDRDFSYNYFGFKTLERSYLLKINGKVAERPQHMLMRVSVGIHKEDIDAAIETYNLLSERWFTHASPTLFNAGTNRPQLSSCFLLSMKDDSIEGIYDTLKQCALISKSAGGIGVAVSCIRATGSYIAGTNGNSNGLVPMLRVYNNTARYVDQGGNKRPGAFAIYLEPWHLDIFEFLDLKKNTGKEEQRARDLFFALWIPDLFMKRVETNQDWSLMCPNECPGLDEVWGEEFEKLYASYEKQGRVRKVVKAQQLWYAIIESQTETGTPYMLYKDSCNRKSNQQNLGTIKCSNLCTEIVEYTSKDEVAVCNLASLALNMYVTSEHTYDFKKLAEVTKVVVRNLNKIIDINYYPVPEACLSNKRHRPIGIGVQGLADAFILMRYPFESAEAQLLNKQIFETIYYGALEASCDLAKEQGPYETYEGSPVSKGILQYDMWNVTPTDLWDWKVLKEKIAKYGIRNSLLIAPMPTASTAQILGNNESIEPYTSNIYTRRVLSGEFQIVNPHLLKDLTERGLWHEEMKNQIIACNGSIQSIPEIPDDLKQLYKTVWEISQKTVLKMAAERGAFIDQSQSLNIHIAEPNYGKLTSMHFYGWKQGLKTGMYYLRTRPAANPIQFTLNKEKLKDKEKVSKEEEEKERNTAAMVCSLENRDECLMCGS
Assay: Inhibition of Human Ribonucleotide Reductase Assay
Type: biochemical
Conditions: Hela cell extract; conversion of (14C)CDP to (14C)dCDP; text of Example 3; read-out: IC50
Procedure: Inhibition of Human Ribonucleotide Reductase Assay
(a) Cell line: Hela cells (ATCC CCL 2.2), human epitheloid carcinoma, cervix.
(b) Cell culture: Cells were incubated in a medium consisting of Iscove's Modified Dulbecco Medium, pH 7.2-7.4 (Gibco Canada Inc., Burlington, ON, Canada) supplemented with 10% by volume of fetal calf serum, heat inactivated (Gibco Canada Inc.), 1 millimolar (mM) of sodium pyruvate, 100 units/ml of penicillin G, 100 μg/ml of streptomycin and 2 mM of L-glutamine. The incubation was done in a 1 l spinner flask at 37° C. under a mixture of 5% CO2 in air. Cell-containing media (75% of culture volume) was withdrawn semicontinuously at 24-48 h intervals. Fresh media was added each time to replace withdrawn media. Final cell density at harvest was 1-2×10^6 cells/ml.
(c) Preparation of cell extract containing human ribonucleotide reductase (hRR)
The harvested culture media obtained above was subjected to low speed centrifugation. The resulting cell pellet was processed according to the following steps. (All steps were performed at 4° C. unless noted otherwise.) […]
(a) Standard Reaction Mixture […]
The activity of RR was quantitated by following the conversion of radiolabeled cytidine diphosphate to radiolabeled deoxycytidine diphosphate, i.e. (^14 C)CDP to (^14 C)dCDP. The amount of cell extract utilized in the assay was that which gave a linear response between enzyme concentration and CDP conversion (ca. 200 μg of protein per assay).
After addition of the cell extract, the assay mixture was incubated at 37° C. for 30 min. The reaction was stopped by immersing the vessel containing the assay mixture in boiling water for 4 min. Nucleotides in the supernatant were then converted to nucleosides by the addition of excess Crotalus adamenteus snake venom (ca. 20 μl of a preparation of 40 mg/ml of the venom in an aqueous solution of 14 mM tris(hydroxymethyl)aminomethane (pH 8.8) and 46.5 mM MgCl2), followed by incubating the resulting mixture for 60 min at 37° C. The enzymatic reaction was stopped by immersing the vessel containing the reaction mixture in boiling waster for 6 min. Thereafter, the mixture is centrifuged at 10,000 rpm on a clinical centrifuge for 5 min.
The resulting free nucleosides, cytidine (C) and deoxycytidine (dC), in the supernatant were separated by thin layer chromatography on polyethyleneimine-cellulose plates pretreated with boric acid. Elution of 5 μl samples was accomplished using a solution of ethanol/20 mM aqueous ammonium formate (1:1), pH 4.7. Quantitation of radiolabel migrating as C and dC was carried out using radioanalytical imaging equipment (AMBIS Systems Inc., San Diego, CA, USA). substrate conversion was calculated as: [formula]
A unit of ribonucleotide reductase activity is defined as that amount which reduces one nmole of CDP/minute under the conditions described above. Activity was calculated from substrate conversion using the following relationship: [formula]
The conversion factor for the Hela assay was 0.108. Specific activity was expressed as units/mg of protein in the incubation mixture.
The peptides of formula 1 were tested at a minimum of three concentrations. IC50 's were estimated from graphs plotting the results for each peptide, the IC50 being the concentration of the peptide in micromoles (μM) producing 50% of the maximal inhibition of the enzyme.

| Compound | IC50 [µM] |
| --- | --- |
| Ac-FTLDADF [Example 2, AcPhe-Thr-Leu-Asp-Ala-Asp-Phe-OH] | 38 |

Same assay, conditions: Hela cell extract; table of Example 4; read-out: IC50

| Compound | IC50 [µM] |
| --- | --- |
| Ac-NSFTLDADF-OH [Ac--Asn--Ser--Phe--Thr--Leu--Asp--Ala--Asp--Phe--OH] | 33 |
| Ac-TENSFTLDADF [AcThr--Glu--Asn--Ser--Phe--Thr--Leu--Asp--Ala--Asp--Phe--OH] | 83 |
| H-NSTENSFTLDADF-OH [H--Asn--Ser--Thr--Glu--Asn--Ser--Phe--Thr--Leu--Asp--Ala--Asp--Phe--OH] | 62 |
| H-TENSFTLDADF-OH [H--Thr--Glu--Asn--Ser--Phe--Thr--Leu--Asp--Ala--Asp--Phe--OH] | 95 |
| H-VISNSTENSFTLDADF-OH [H--Val--Ile--Ser--Asn--Ser--Thr--Glu--Asn--Ser--Phe--Thr--Leu--Asp--Ala--Asp--Phe--OH] | 49 |

Same assay, conditions: inhibition of human RR assay; list after the table; unit μM; read-out: IC50 (shown in parenthesis)

| Compound | IC50 [µM] |
| --- | --- |
| CC(=O)N[C@@H](Cc1ccccc1)C(=O)N(C)[C@H](C(=O)N[C@@H](CC(C)C)C(=O)N[C@@H](CC(=O)O)C(=O)N[C@@H](C)C(=O)N[C@@H](CC(=O)O)C(=O)N[C@@H](Cc1ccccc1)C(=O)O)C(C)C [AcPhe-N-Me-Val-Leu-Asp-Ala-Asp-Phe-OH] (Ac-F[NMeV]LDADF-OH) | 48 |
| CC(=O)N[C@@H](Cc1ccccc1)C(=O)N[C@H](C(=O)N[C@@H](CC(C)C)C(=O)N[C@@H](CC(=O)N(C)C)C(=O)N[C@@H](C)C(=O)N[C@@H](CC(=O)O)C(=O)N[C@@H](Cc1ccccc1)C(=O)O)[C@@H](C)O [AcPhe-Thr-Leu-Asp(NMe2)-Ala-Asp-Phe-OH] (Ac-FTLD(NMe2)ADF-OH) | 58 |
| CC(=O)N[C@@H](Cc1ccccc1)C(=O)N[C@H](C(=O)N[C@@H](CC(C)C)C(=O)N[C@@H](CC(=O)O)C(=O)N[C@@H](C)C(=O)N[C@@H](CC(=O)O)C(=O)N[C@@H](CCc1ccccc1)C(=O)O)[C@@H](C)O [AcPhe-Thr-Leu-Asp-Ala-Asp-homoPhe-OH] (Ac-FTLDAD[hPhe]-OH) | 58 |
| CC(=O)N[C@@H](Cc1ccccc1)C(=O)N[C@H](C(=O)N[C@@H](CC(C)C)C(=O)N[C@@H](CC(=O)O)C(=O)N[C@@H](C)C(=O)N[C@H](CC(=O)O)C(=O)N[C@@H](Cc1ccccc1)C(=O)O)[C@@H](C)O [AcPhe-Thr-Leu-Asp-Ala-D-Asp-Phe-OH] (Ac-FTLDA[dD]F-OH) | 280 |
| CC(=O)N[C@@H](Cc1ccccc1)C(=O)N[C@H](C(=O)N[C@@H](CC(C)C)C(=O)N[C@@H](CC(=O)O)C(=O)N[C@@H](C)C(=O)N(C)[C@@H](CC(=O)O)C(=O)N[C@@H](Cc1ccccc1)C(=O)O)[C@@H](C)O [AcPhe-Thr-Leu-Asp-Ala-N-Me-Asp-Phe-OH] (Ac-FTLDA[NMeD]F-OH) | 46 |
| CC(=O)N[C@@H](Cc1ccccc1)C(=O)N[C@H](C(=O)N[C@@H](CC(C)C)C(=O)N[C@@H](CC(=O)O)C(=O)N[C@H](C)C(=O)N[C@@H](CC(=O)O)C(=O)N[C@@H](Cc1ccccc1)C(=O)O)[C@@H](C)O [AcPhe-Thr-Leu-Asp-D-Ala-Asp-Phe-OH] (Ac-FTLD[dA]DF-OH) | 460 |
| CC(=O)N[C@@H](Cc1ccccc1)C(=O)N[C@H](C(=O)N[C@@H](CC(C)C)C(=O)N[C@H](CC(=O)O)C(=O)N[C@@H](C)C(=O)N[C@@H](CC(=O)O)C(=O)N[C@@H](Cc1ccccc1)C(=O)O)[C@@H](C)O [AcPhe-Thr-Leu-D-Asp-Ala-Asp-Phe-OH] (Ac-FTL[dD]ADF-OH) | 200 |
| CC(=O)N[C@@H](Cc1ccccc1)C(=O)N[C@H](C(=O)N(C)[C@@H](CC(C)C)C(=O)N[C@@H](CC(=O)O)C(=O)N[C@@H](C)C(=O)N[C@@H](CC(=O)O)C(=O)N[C@@H](Cc1ccccc1)C(=O)O)[C@@H](C)O [AcPhe-Thr-N-Me-Leu-Asp-Ala-Asp-Phe-OH] (Ac-FT[NMeL]DADF-OH) | 23 |
| Ac-FTFNEDF [AcPhe-Thr-Phe-Asn-Glu-Asp-Phe-OH] | 150 |
| Ac-FTLDEDF [AcPhe-Thr-Leu-Asp-Glu-Asp-Phe-OH] | 28 |
| Ac-FTLDVDF [AcPhe-Thr-Leu-Asp-Val-Asp-Phe-OH] | 39 |
| Ac-FTLFADF [AcPhe-Thr-Leu-Phe-Ala-Asp-Phe-OH] | 73 |
| Ac-FTLGADF [AcPhe-Thr-Leu-Gly-Ala-Asp-Phe-OH] | 150 |
| Ac-FTLNADF [AcPhe-Thr-Leu-Asn-Ala-Asp-Phe-OH] | 31 |
| Ac-FTLQADF [AcPhe-Thr-Leu-Gln-Ala-Asp-Phe-OH] | 120 |
| H-PTENSFTLDADF-OH [H-Pro-Thr-Glu-Asn-Ser-Phe-Thr-Leu-Asp-Ala-Asp-Phe-OH] | 41 |
| H-SPTENSFTLDADF-OH [H-Ser-Pro-Thr-Glu-Asn-Ser-Phe-Thr-Leu-Asp-Ala-Asp-Phe-OH] | 29 |
| H-SSPTENSFTLDADF-OH [H-Ser-Ser-Pro-Thr-Glu-Asn-Ser-Phe-Thr-Leu-Asp-Ala-Asp-Phe-OH] | 26 |
